Here are results for 3 compounds from publication PMC8200818, “SPECT/CT Imaging, Biodistribution and Radiation Dosimetry of a ^177Lu-DOTA-Integrin αvβ6 Cystine Knot Peptide in a Pancreatic Cancer Xenograft Model” (Frontiers in Oncology, 2021).

Series [1] addresses T1, integrin αvβ6 (BxPC-3 cells) (Homo sapiens, UniProt P06756+P18564).
T1 construct: endogenous in cells; host or cells: BxPC-3 (whole adherent cells)
The experiment in a line: Competition binding assay, BxPC-3. The settings on record: BxPC-3. The procedure:
(§1) The reaction volume was made up to 30 µl with water. The reaction was carried out for 10 minutes at 80°C.
(§2) For competitive radioligand binding assay, approximately 50,000 cells (BxPC-3 or Capan-2) per well were seeded in a 96 well plate incubated overnight at 37°C. […] After 2 hours of incubation, cells were washed for 2-3 times with ice-cold washing buffer (50 mM Tris-HCl, pH 7.4, 125 mM NaCl, 0.05% BSA) and lysed with 1 N NaOH (80 µl/well). The lysed cells were transferred to vials and measured in a gamma counter (Wallac 1470 Wizard, Perkin Elmer, Waltham, MA, USA). Obtained cpm values were plotted with GraphPad Prism and the data fitted using nonlinear regression (one site - fit Ki, one site - fit logIC50).
(§3) All statistical analyses were performed using GraphPad Prism 5.04. IC50 values were determined by nonlinear sigmoidal curve fitting with variable slope setting. All presented data are based on independent experiments. Numerical data for this study have been deposited in an open data repository for public access: http://doi.org/10.5281/zenodo.4362503.

Series [2] has as its target T2, integrin αvβ6 (Capan-2 cells) (Homo sapiens, UniProt P06756+P18564).
T2 construct: endogenous in cells; host or cells: Capan-2 (whole adherent cells)
Nature of the series: Competition binding assay, Capan-2. On the procedure:
as §1, §2, §3

For the next series, the system named is Capan-2 xenografts. The settings on record: day 1 versus day 8 after injection; single dose; listed as DOTA-integrin αvβ6 knottin.
For series [3] the following is noted: cited from earlier work.
A further series deals with integrin αvβ6. The settings on record: cited from earlier work. The text has this:
Cystine knot peptides (knottins) represent small peptides of approximately 4 kDa with three threaded disulfide bonds that form a rigid topological knot constraining the peptide’s conformational flexibility. Such a structural motif is known as a cystine knot ([21], [22]). One of the advantages of knottins is the high variability of backbone residues that may be used to modulate tumor and kidney uptake ([23]). Knottins are well suited for in vivo tumor-targeting applications as their disulfide-bonded core confers outstanding thermal stability and resistance against proteolytic degradation; moreo ...

Setting [4] is: displacement of ^125I-DOTA-integrin αvβ6 knottin (100,000 cpm), 2 h, pH 7.4, mean ± S.E.M. (3 ≤ n ≤ 4), read-out: Inhibitory constant (Ki).

Molecules are shown by their SMILES.

T2 sequence (P06756 31-889 limits assumed): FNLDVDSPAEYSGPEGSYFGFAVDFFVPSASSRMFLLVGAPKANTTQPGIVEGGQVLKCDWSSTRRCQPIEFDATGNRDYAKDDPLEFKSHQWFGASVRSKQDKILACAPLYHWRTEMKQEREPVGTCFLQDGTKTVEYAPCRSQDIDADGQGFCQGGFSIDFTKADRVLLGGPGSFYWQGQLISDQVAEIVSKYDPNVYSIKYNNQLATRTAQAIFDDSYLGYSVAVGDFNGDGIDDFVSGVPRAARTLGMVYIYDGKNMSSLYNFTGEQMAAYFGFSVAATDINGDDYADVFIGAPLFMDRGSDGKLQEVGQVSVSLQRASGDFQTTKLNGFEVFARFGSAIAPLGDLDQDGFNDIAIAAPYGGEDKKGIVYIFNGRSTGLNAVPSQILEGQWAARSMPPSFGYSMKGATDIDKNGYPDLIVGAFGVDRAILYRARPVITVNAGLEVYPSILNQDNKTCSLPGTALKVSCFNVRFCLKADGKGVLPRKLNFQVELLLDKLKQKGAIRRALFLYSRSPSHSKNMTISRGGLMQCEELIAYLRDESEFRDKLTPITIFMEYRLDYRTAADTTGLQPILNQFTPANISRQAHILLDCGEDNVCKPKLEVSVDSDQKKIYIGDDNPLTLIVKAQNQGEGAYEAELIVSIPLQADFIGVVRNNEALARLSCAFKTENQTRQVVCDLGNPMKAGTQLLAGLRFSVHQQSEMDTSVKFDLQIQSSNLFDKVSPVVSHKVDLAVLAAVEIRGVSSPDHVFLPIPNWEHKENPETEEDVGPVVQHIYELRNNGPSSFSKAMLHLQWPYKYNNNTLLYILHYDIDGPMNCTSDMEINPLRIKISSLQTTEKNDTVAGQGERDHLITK
T2 sequence (P06756 891-1048 partner limits assumed): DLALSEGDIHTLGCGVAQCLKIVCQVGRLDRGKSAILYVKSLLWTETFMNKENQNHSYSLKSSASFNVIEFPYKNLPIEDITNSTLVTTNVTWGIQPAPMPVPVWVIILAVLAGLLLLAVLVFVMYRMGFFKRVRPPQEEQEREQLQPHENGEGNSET
T2 sequence (P18564 22-788): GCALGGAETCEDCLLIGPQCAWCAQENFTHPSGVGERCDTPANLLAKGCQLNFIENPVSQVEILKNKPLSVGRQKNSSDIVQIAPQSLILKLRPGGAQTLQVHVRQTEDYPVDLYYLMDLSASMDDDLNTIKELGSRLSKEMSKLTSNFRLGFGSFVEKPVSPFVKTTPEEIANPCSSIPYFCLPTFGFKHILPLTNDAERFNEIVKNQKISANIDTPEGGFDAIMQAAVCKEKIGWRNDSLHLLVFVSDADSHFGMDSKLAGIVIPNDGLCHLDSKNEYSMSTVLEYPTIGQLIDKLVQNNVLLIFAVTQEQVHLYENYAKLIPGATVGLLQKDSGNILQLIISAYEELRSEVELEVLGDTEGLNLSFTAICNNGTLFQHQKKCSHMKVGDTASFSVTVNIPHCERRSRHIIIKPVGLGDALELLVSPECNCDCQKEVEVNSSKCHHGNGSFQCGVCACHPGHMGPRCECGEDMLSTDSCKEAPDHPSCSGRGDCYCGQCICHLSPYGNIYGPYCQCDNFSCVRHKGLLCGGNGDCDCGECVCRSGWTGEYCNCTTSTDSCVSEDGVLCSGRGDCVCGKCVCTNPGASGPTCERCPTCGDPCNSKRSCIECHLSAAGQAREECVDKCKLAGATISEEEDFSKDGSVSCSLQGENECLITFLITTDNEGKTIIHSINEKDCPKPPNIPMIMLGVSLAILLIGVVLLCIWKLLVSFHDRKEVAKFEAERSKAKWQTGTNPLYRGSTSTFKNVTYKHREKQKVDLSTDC
T1 sequence (P06756 31-889 limits assumed): as the sequence (P06756 31-889 limits assumed) above
T1 sequence (P06756 891-1048 partner limits assumed): as the sequence (P06756 891-1048 partner limits assumed) above
T1 sequence (P18564 22-788): as the sequence (P18564 22-788) above

For the compound `CC[C@H](C)[C@@H]1NC(=O)[C@@H](NC(=O)CNC(=O)CN2CCN(CC(=O)O)CCN(CC(=O)O)CCN(CC(=O)O)CC2)CSSC[C@@H]2NC(=O)[C@H](C)NC(=O)CNC(=O)[C@@H]3CCCN3C(=O)[C@@H]3CSSC[C@@H](C(=O)NCC(=O)O)NC(=O)[C@H](Cc4ccc(O)cc4)NC(=O)CNC(=O)[C@H](CC(N)=O)NC(=O)CNC(=O)[C@H](CCCNC(=N)N)NC(=O)[C@H](CSSC[C@H](NC(=O)[C@H](CCCNC(=N)N)NC(=O)[C@H](Cc4ccccc4)NC(=O)[C@H](CC(C)C)NC(=O)[C@H](CC(C)C)NC(=O)[C@H]([C@@H](C)O)NC(=O)CNC(=O)[C@H](CC(C)C)NC(=O)[C@H](CC(=O)O)NC(=O)[C@H]([C@@H](C)O)NC(=O)[C@H](CCCNC(=N)N)NC(=O)CNC(=O)[C@H](CC(N)=O)NC(=O)[C@H](CC(C)C)NC1=O)C(=O)N[C@@H](CCCNC(=N)N)C(=O)N[C@@H](CCCNC(=N)N)C(=O)N[C@@H](CC(=O)O)C(=O)N[C@@H](CO)C(=O)N[C@@H](CC(=O)O)C(=O)N3)NC(=O)[C@H]([C@@H](C)CC)NC2=O` [DOTA knottin], the inhibition constant Ki in series [1] (setting [4]) is 1.69 ± 1.3 nM; in series [2] (setting [4]), 9.46 ± 5.21 nM. Also, the “Tissue structure of xenografts (H&E)” value in the series on Capan-2 xenografts is “no significant impact was observed”.
For the compound `CC[C@H](C)[C@@H]1NC(=O)[C@@H](NC(=O)CNC(=O)CN2CCN(CC(=O)O)CCN(CC(=O)O)CCN(CC(=O)O)CC2)CSSC[C@@H]2NC(=O)[C@H](C)NC(=O)CNC(=O)[C@@H]3CCCN3C(=O)[C@@H]3CSSC[C@@H](C(=O)NCC(=O)O)NC(=O)[C@H](Cc4ccc(O)cc4)NC(=O)CNC(=O)[C@H](CC(N)=O)NC(=O)CNC(=O)[C@H](CCCNC(=N)N)NC(=O)[C@H](CSSC[C@H](NC(=O)[C@H](CCCNC(=N)N)NC(=O)[C@H](Cc4ccccc4)NC(=O)[C@H](CC(C)C)NC(=O)[C@H](CC(C)C)NC(=O)[C@H]([C@@H](C)O)NC(=O)CNC(=O)[C@H](CC(C)C)NC(=O)[C@H](CC(=O)O)NC(=O)[C@H]([C@@H](C)O)NC(=O)[C@H](CCCNC(=N)N)NC(=O)CNC(=O)[C@H](CC(N)=O)NC(=O)[C@H](CC(C)C)NC1=O)C(=O)N[C@@H](CCCNC(=N)N)C(=O)N[C@@H](CCCNC(=N)N)C(=O)N[C@@H](CC(=O)O)C(=O)N[C@@H](CO)C(=O)N[C@@H](CC(=O)O)C(=O)N3)NC(=O)[C@H]([C@@H](C)CC)NC2=O` [^natLu DOTA knottin, metal not drawn], the “Effect of DOTA / ^natLu chelation on affinity” value in series [1] and in series [2] was “did not compromise the high affinity of the tracer” throughout.
As for `CC[C@H](C)[C@@H]1NC(=O)[C@@H](NC(=O)CN)CSSC[C@@H]2NC(=O)[C@H](C)NC(=O)CNC(=O)[C@@H]3CCCN3C(=O)[C@@H]3CSSC[C@@H](C(=O)NCC(=O)O)NC(=O)[C@H](Cc4ccc(O)cc4)NC(=O)CNC(=O)[C@H](CC(N)=O)NC(=O)CNC(=O)[C@H](CCCNC(=N)N)NC(=O)[C@H](CSSC[C@H](NC(=O)[C@H](CCCNC(=N)N)NC(=O)[C@H](Cc4ccccc4)NC(=O)[C@H](CC(C)C)NC(=O)[C@H](CC(C)C)NC(=O)[C@H]([C@@H](C)O)NC(=O)CNC(=O)[C@H](CC(C)C)NC(=O)[C@H](CC(=O)O)NC(=O)[C@H]([C@@H](C)O)NC(=O)[C@H](CCCNC(=N)N)NC(=O)CNC(=O)[C@H](CC(N)=O)NC(=O)[C@H](CC(C)C)NC1=O)C(=O)N[C@@H](CCCNC(=N)N)C(=O)N[C@@H](CCCNC(=N)N)C(=O)N[C@@H](CC(=O)O)C(=O)N[C@@H](CO)C(=O)N[C@@H](CC(=O)O)C(=O)N3)NC(=O)[C@H]([C@@H](C)CC)NC2=O` [knottin], the “Effect of DOTA / ^natLu chelation on affinity” value in series [1] and in series [2] was “did not change upon either the addition of a DOTA chelator moiety or incorporation of natural non-radioactive lutetium” throughout. The “Stability and affinity to the receptor in vivo” value in series [3] is “not compromised in vivo”. Moreover, the “Tumor uptake (previous)” value in series [3] (in vivo) is listed as “favorable tumor uptake”. Moreover, the “Binding affinity for integrin αvβ6” value in the series with integrin αvβ6 is on record as “low single-digit nanomolar binding affinity”.

By Ki is commonly meant the equilibrium dissociation constant of an inhibitor or competing ligand from its target.
